Holding throughout (format): functional
The test system of experiment [1] is Blumeria graminis f. sp. tritici. The experiment in a line: Fungicidal activity against Blumeria graminis f. sp. tritici inoculated on wheat seedlings pre-treated with compound 24 hr before fungal inoculation assessed as inhibition of wheat powdery mildew disease at 7.8 ppm measured after 10 days under greenhouse conditions relative to untreated control.
For experiment [2], the system named is Podosphaera fuliginea. The experiment in a line: Fungicidal activity against Podosphaera fuliginea inoculated on cucumber plants pre-treated with compound 24 hr before fungal inoculation assessed as inhibition of cucumber powdery mildew disease at 7.8 ppm measured after 10 days under greenhouse conditions relative to untreated control.
Experiment [3] deals with Puccinia coronata. The experiment can be described thus: Fungicidal activity against Puccinia coronata inoculated in oat leaves treated with compound 24 hr after fungal inoculation assessed as inhibition of oat crown rust disease at 31.3 ppm measured after 9 days under greenhouse conditions relative to untreated control.
Experiment [4] concerns Puccinia coronata. The experiment in a line: Fungicidal activity against Puccinia coronata inoculated in oat leaves pre-treated with compound 24 hr before fungal inoculation assessed as inhibition of oat crown rust disease at 7.8 ppm measured after 9 days under greenhouse conditions relative to untreated control.
For experiment [5], the system named is Puccinia coronata. The experiment in a line: Fungicidal activity against Puccinia coronata inoculated in oat leaves pre-treated with compound 24 hr before fungal inoculation assessed as inhibition of oat crown rust disease at 31.3 ppm measured after 9 days under greenhouse conditions relative to untreated control.
For experiment [6], the system named is Botrytis cinerea. The experiment in a line: Fungicidal activity against Botryotinia fuckeliana inoculated on cucumber leaves treated with compound 24 hr after fungal inoculation assessed as inhibition of cucumber gray mold disease at 7.8 ppm measured after 3 days under greenhouse conditions relative to untreated control.
The subject of another experiment is Pyricularia oryzae. The experiment can be described thus: Inhibition of oxygen consumption in Magnaporthe oryzae submitochondrial particles using NADH substrate.
The test system of experiment [7] is Puccinia coronata. The experiment in a line: Fungicidal activity against Puccinia coronata inoculated in oat leaves treated with compound 24 hr after fungal inoculation assessed as inhibition of oat crown rust disease at 7.8 ppm measured after 9 days under greenhouse conditions relative to untreated control.
Experiment [8] relates to Botrytis cinerea. The experiment in a line: Fungicidal activity against Botryotinia fuckeliana inoculated on cucumber leaves pre-treated with compound 24 hr before fungal inoculation assessed as inhibition of cucumber gray mold disease at 31.3 ppm measured after 3 days under greenhouse conditions relative to untreated control.
The subject of experiment [9] is Podosphaera fuliginea. The experiment in a line: Fungicidal activity against Podosphaera fuliginea inoculated on cucumber plants treated with compound 24 hr after fungal inoculation assessed as inhibition of cucumber powdery mildew disease at 31.3 ppm measured after 10 days under greenhouse conditions relative to untreated control.
The test system of experiment [10] is Blumeria graminis f. sp. tritici. The experiment can be described thus: Fungicidal activity against Blumeria graminis f. sp. tritici inoculated on wheat seedlings pre-treated with compound 24 hr before fungal inoculation assessed as inhibition of wheat powdery mildew disease at 31.3 ppm measured after 10 days under greenhouse conditions relative to untreated control.

Experiment [11] has as its system Podosphaera fuliginea. The experiment can be described thus: Fungicidal activity against Podosphaera fuliginea inoculated on cucumber plants pre-treated with compound 24 hr before fungal inoculation assessed as inhibition of cucumber powdery mildew disease at 31.3 ppm measured after 10 days under greenhouse conditions relative to untreated control.
For experiment [12], the system named is Botrytis cinerea. The experiment can be described thus: Fungicidal activity against Botryotinia fuckeliana inoculated on cucumber leaves treated with compound 24 hr after fungal inoculation assessed as inhibition of cucumber gray mold disease at 31.3 ppm measured after 3 days under greenhouse conditions relative to untreated control.
Experiment [13] relates to Botrytis cinerea. The experiment can be described thus: Fungicidal activity against Botryotinia fuckeliana inoculated on cucumber leaves pre-treated with compound 24 hr before fungal inoculation assessed as inhibition of cucumber gray mold disease at 7.8 ppm measured after 3 days under greenhouse conditions relative to untreated control.
For experiment [14], the system named is Blumeria graminis f. sp. tritici. The experiment can be described thus: Fungicidal activity against Blumeria graminis f. sp. tritici inoculated on wheat seedlings treated with compound 24 hr after fungal inoculation assessed as inhibition of wheat powdery mildew disease at 7.8 ppm measured after 10 days under greenhouse conditions relative to untreated control.

Experiment [15] shares this test system. The experiment can be described thus: Fungicidal activity against Blumeria graminis f. sp. tritici inoculated on wheat seedlings treated with compound 24 hr after fungal inoculation assessed as inhibition of wheat powdery mildew disease at 31.3 ppm measured after 10 days under greenhouse conditions relative to untreated control.
Experiment [16] concerns Podosphaera fuliginea. The experiment in a line: Fungicidal activity against Podosphaera fuliginea inoculated on cucumber plants treated with compound 24 hr after fungal inoculation assessed as inhibition of cucumber powdery mildew disease at 7.8 ppm measured after 10 days under greenhouse conditions relative to untreated control.
In experiment [17] the test system is Blumeria graminis f. sp. tritici. The experiment in a line: Fungicidal activity against Blumeria graminis f. sp. tritici inoculated on wheat seedlings pre-treated with compound 24 hr before fungal inoculation assessed as inhibition of wheat powdery mildew disease at 125 ppm measured after 10 days under greenhouse conditions relative to untreated control.
The test system is the same in experiment [18]. The experiment can be described thus: Fungicidal activity against Blumeria graminis f. sp. tritici inoculated on wheat seedlings pre-treated with compound 24 hr before fungal inoculation assessed as inhibition of wheat powdery mildew disease at 500 ppm measured after 10 days under greenhouse conditions relative to untreated control.
The test system of experiment [19] is Podosphaera fuliginea. The experiment can be described thus: Fungicidal activity against Podosphaera fuliginea inoculated on cucumber plants pre-treated with compound 24 hr before fungal inoculation assessed as inhibition of cucumber powdery mildew disease at 500 ppm measured after 10 days under greenhouse conditions relative to untreated control.

Turning to `CON=C(c1ccon1)c1ccccc1COc1cc(C)ccc1C`, the inhibition at 7.8 ppm (in [1]; in the experiment on Podosphaera fuliginea [2]) was 90% each time.

For `CNC(=O)/C(=N/OC)c1ccccc1Oc1cc(C)ccc1C`, the inhibition at 31.3 ppm turned out to be 100% with Puccinia coronata [3]; 100% with Puccinia coronata [5]; 50% in the experiment with Botrytis cinerea [8]; 100% with Podosphaera fuliginea [9]; 100% in experiment [10]; 100% in the experiment with Podosphaera fuliginea [11]. Besides, the inhibition at 31.3 ppm came to 50% with Botrytis cinerea [12] and 97% in [15]. For the same molecule, the inhibition at 7.8 ppm is 100% in the experiment on Puccinia coronata [4]; 40% with Botrytis cinerea [6]; 100% with Puccinia coronata [7]; 100% in experiment [1]; 100% with Podosphaera fuliginea [2]; 40% with Botrytis cinerea [13]. In addition, the inhibition at 7.8 ppm amounted to 97% in experiment [14] and 100% with Podosphaera fuliginea [16]. The molecule further returned an IC50 with Pyricularia oryzae of 18 nM.

As to `CON=C(C1=NOCC1)c1ccccc1COc1cc(C)ccc1C`, the inhibition at 125 ppm in experiment [17] stood at 90%. Moreover, the inhibition at 7.8 ppm in the experiment on Podosphaera fuliginea [2] was found to be 90%.

Regarding `CO/N=C(\c1ccon1)c1ccccc1COc1cc(C)ccc1C`, in experiment [1], the inhibition at 7.8 ppm is 90%. Further, the inhibition at 31.3 ppm in the experiment on Podosphaera fuliginea [11] worked out at 90%.

With `CO/N=C(\c1ccno1)c1ccccc1COc1cc(C)ccc1C`, the inhibition at 500 ppm (in experiment [18]; with Podosphaera fuliginea [19]) was 90% each time.

With `CON=C(c1cc(C)on1)c1ccccc1COc1cc(C)ccc1C`, the inhibition at 31.3 ppm in experiment [10] is 90%. In the experiment on Podosphaera fuliginea [2], the inhibition at 7.8 ppm came out at 90%.

On to `CO/N=C(\c1cc(C)no1)c1ccccc1COc1cc(C)ccc1C`, for which the inhibition at 31.3 ppm in the experiment on Puccinia coronata [3] was 100%; in the experiment on Puccinia coronata [5], 97%; in the experiment on Botrytis cinerea [8], 30%; in the experiment with Podosphaera fuliginea [9], 100%; in [10] it was 97%; with Podosphaera fuliginea [11] it was 100%. Moreover, the inhibition at 31.3 ppm with Botrytis cinerea [12] turned out to be 20%; in experiment [15], 97%. Further, the inhibition at 7.8 ppm in the experiment with Puccinia coronata [4] is 90%; with Botrytis cinerea [6], 0%; with Puccinia coronata [7], 97%; in [1], 97%; in the experiment with Podosphaera fuliginea [2], 100%; with Botrytis cinerea [13], 10%. Moreover, the figures for the inhibition at 7.8 ppm (in experiment [14]; in the experiment on Podosphaera fuliginea [16]) were 70% and 100%, respectively. Half-maximal inhibition in the experiment with Pyricularia oryzae (IC50) was put at 46 nM.

Take `CO/N=C(/C1=NOCC1)c1ccccc1COc1cc(C)ccc1C`: the inhibition at 31.3 ppm with Puccinia coronata [3] worked out at 50%; with Puccinia coronata [5], 90%; with Botrytis cinerea [8], 20%; in the experiment with Podosphaera fuliginea [9] it was 100%; in experiment [10], 90%; in the experiment on Podosphaera fuliginea [11] it was 100%. The values for the inhibition at 31.3 ppm (in the experiment on Botrytis cinerea [12]; in experiment [15]) were 20% and 97%, respectively. In addition, the inhibition at 7.8 ppm stood at 30% in the experiment on Puccinia coronata [4]; 0% with Botrytis cinerea [6]; 0% in the experiment with Puccinia coronata [7]; 90% in experiment [1]; 90% with Podosphaera fuliginea [2]; 0% in the experiment on Botrytis cinerea [13]. The inhibition at 7.8 ppm in experiment [14] was 70%; in the experiment on Podosphaera fuliginea [16], 100%.

With `CO/N=C(/C1=NOC(C)C1)c1ccccc1COc1cc(C)ccc1C` (configuration not stated), the inhibition at 500 ppm in experiment [18] came to 90%. In addition, the inhibition at 31.3 ppm in the experiment on Podosphaera fuliginea [11] came out at 90%.

Regarding `CO/N=C(/C1=NOC(C)(C)C1)c1ccccc1COc1cc(C)ccc1C`, the inhibition at 500 ppm (in experiment [18]; with Podosphaera fuliginea [19]) was < 90% throughout.

As for `CO/N=C(\c1ccccc1COc1cc(C)ccc1C)C1CC(C)=NO1` (configuration not stated), the inhibition at 500 ppm in [18] is < 90%. Also, the inhibition at 31.3 ppm in the experiment on Podosphaera fuliginea [11] was 90%.

For `CO/N=C(/c1ccon1)c1ccccc1COc1cc(C)ccc1C`, the inhibition at 31.3 ppm in the experiment with Puccinia coronata [3] is 70%; in the experiment with Puccinia coronata [5] it was 97%; in the experiment on Botrytis cinerea [8], 40%; with Podosphaera fuliginea [9] it was 100%; in experiment [10], 97%; in the experiment on Podosphaera fuliginea [11] it was 100%. For the same molecule, the figures for the inhibition at 31.3 ppm (with Botrytis cinerea [12]; in [15]) were 30% and 97%, respectively. In addition, the inhibition at 7.8 ppm with Puccinia coronata [4] amounted to 90%; in the experiment on Botrytis cinerea [6], 30%; with Puccinia coronata [7] it was 30%; in [1], 97%; in the experiment with Podosphaera fuliginea [2] it was 100%; in the experiment with Botrytis cinerea [13] it was 20%. The inhibition at 7.8 ppm in experiment [14] is 90%; in the experiment on Podosphaera fuliginea [16], 100%. The IC50 in the experiment with Pyricularia oryzae was found to be 103 nM.

For `CO/N=C(/c1cc(C)on1)c1ccccc1COc1cc(C)ccc1C`, the inhibition at 500 ppm in experiment [18] was < 90%. The inhibition at 31.3 ppm with Podosphaera fuliginea [11] was determined as 90%.

Consider `CO/N=C(/c1cc(OC)on1)c1ccccc1COc1cc(C)ccc1C`, for which the inhibition at 500 ppm in experiment [18] was < 90%. In addition, the inhibition at 31.3 ppm in the experiment with Podosphaera fuliginea [11] was 90%.

Regarding `CO/N=C(\c1ccccc1COc1cc(C)ccc1C)c1c(C)noc1C`, the inhibition at 500 ppm in experiment [18] was < 90%; in the experiment with Podosphaera fuliginea [19], 90%.

For `CO/N=C(/c1ccno1)c1ccccc1COc1cc(C)ccc1C`, the inhibition at 31.3 ppm (in [10]; with Podosphaera fuliginea [11]) was 90% throughout.

Turning to `CO/N=C(/c1cc(C)no1)c1ccccc1COc1cc(C)ccc1C`, the inhibition at 31.3 ppm in experiment [10] came out at 90%. In addition, the inhibition at 7.8 ppm in the experiment with Podosphaera fuliginea [2] came to 90%.

Turning to `CCc1cc(/C(=N/OC)c2ccccc2COc2cc(C)ccc2C)on1`, the inhibition at 500 ppm in [18] was < 90%; in the experiment on Podosphaera fuliginea [19], 90%.

`CO/N=C(\Cc1cc(C)no1)c1ccccc1COc1cc(C)ccc1C`: the inhibition at 500 ppm (in experiment [18]; with Podosphaera fuliginea [19]) was < 90% throughout.

As usually defined, the inhibition is the relative decrease from the control value, in per cent. Broadly, the IC50 is the concentration needed to halve the response being measured. Low values mean greater potency in that assay, high ones weaker potency in that assay.

The record behind these values is ChEMBL document CHEMBL3045205, “Synthesis and Fungicidal Activities of [2-(2, 5-Dimethylphenoxymethyl)--methoxyiminobenzyl]-isoxazole Derivatives” (J Pestic Sci, 1999).
